Data published in ChEMBL document CHEMBL1135753, “Characterization of orally active nonpeptide vasopressin V(2) receptor agonist. Synthesis and biological evaluation of both the (5R)- and (5S)-enantioisomers of 2-[1-(2-Chloro-4-pyrrolidin-1-yl-benzoyl)-2,3,4,5-tetrahydro-1H-1-benzazepin- 5-yl]-N-isopropylacetamide” (J Med Chem, 2002).

Key:
[1] = molecular target: Vasopressin V2 receptor (Rattus norvegicus, UniProt Q00788); assay: Binding affinity against Vasopressin V2 receptor was determined in Brattleboro rats
Vasopressin V2 receptor (Rattus norvegicus, UniProt Q00788), sequence (Q00788 whole entry): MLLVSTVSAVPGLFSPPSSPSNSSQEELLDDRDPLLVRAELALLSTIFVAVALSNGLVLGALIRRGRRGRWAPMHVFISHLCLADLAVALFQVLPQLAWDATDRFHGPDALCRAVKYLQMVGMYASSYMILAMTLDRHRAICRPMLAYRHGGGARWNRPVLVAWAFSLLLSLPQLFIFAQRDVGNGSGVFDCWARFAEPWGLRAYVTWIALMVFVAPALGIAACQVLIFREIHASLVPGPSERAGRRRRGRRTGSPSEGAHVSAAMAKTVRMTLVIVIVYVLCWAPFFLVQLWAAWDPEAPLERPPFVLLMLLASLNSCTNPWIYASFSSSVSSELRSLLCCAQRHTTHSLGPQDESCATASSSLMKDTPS

[2] = molecular target: T1, Vasopressin V2 receptor (Homo sapiens, UniProt P30518); assay: Percentage of maximal cAMP accumulation at a concentration of 10e-4 M was done in HeLa cells expressing the human Vasopressin V2 receptor; type: functional, cell-based
T1 sequence (P30518 whole entry): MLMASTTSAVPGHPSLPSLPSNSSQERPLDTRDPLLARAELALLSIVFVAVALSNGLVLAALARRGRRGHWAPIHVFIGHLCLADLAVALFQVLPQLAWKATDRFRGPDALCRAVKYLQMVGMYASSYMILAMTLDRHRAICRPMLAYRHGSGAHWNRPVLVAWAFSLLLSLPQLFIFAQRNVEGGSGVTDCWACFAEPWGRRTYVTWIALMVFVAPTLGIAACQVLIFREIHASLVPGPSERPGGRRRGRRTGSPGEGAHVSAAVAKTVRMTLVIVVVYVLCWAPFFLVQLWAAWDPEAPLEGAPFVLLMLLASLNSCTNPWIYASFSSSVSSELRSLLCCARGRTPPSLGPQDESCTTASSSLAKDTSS

[3] = molecular target: T1, Vasopressin V2 receptor; assay: Binding affinity against human Vasopressin V2 receptor expressed in HeLa cells was determined; type: cell-based

Row | IC50 [1] | Accumulation [2] | IC50 [3] | SMILES
1 | 390 nM | 22% | 980 nM | CC(C)NC(=O)C[C@@H]1CCCN(C(=O)c2ccc(N3CCCC3)cc2Cl)c2ccccc21
2 | 230 nM | – | 330 nM | CC(C)NC(=O)C[C@H]1CCCN(C(=O)c2ccc(N3CCCC3)cc2Cl)c2ccccc21
